Where “and” joins values, the source holds several entries; their conditions need not be identical. Identical values can stand only once. Toxic doses and inconclusive results are not listed.
Tested on: P388 leukemia ip, CD2F1 mice, survival T/C
Assay: NCI In Vivo Anticancer Drug Screen. Data for tumor model P388 Leukemia (intraperitoneal) in CD2F1 (CDF1) mice
Details: endpoint: median survival time, higher = longer survival
How it was run: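 Mice carrying the transplanted tumor received test compound or vehicle. Survival was recorded in each group, and the value is the treated-group measurement divided by that of the vehicle-treated control group.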

[1] = dose: 50.0 mg/kg/injection, schedule: Q01DX009 (ip), vehicle: saline
[2] = dose: 100.0 mg/kg/injection, schedule: Q01DX009 (ip), vehicle: saline
[3] = dose: 50.0 mg/kg/injection, schedule: Q01DX001 (ip), vehicle: saline with Tween-80
[4] = dose: 100.0 mg/kg/injection, schedule: Q01DX001 (ip), vehicle: saline with Tween-80
[5] = dose: 6.25 mg/kg/injection, schedule: Q01DX009 (ip), vehicle: Klucel (hydroxypropylcellulose) (HPC)
[6] = dose: 25.0 mg/kg/injection, schedule: Q01DX009 (ip), vehicle: Klucel (hydroxypropylcellulose) (HPC)
[7] = dose: 50.0 mg/kg/injection, schedule: Q01DX009 (ip), vehicle: Klucel (hydroxypropylcellulose) (HPC)
[8] = dose: 12.5 mg/kg/injection, schedule: Q01DX009 (ip), vehicle: saline
[9] = dose: 25.0 mg/kg/injection, schedule: Q01DX009 (ip), vehicle: saline
[10] = dose: 100.0 mg/kg/injection, schedule: Q01DX009 (ip), vehicle: saline with Tween-80
[11] = dose: 50.0 mg/kg/injection, schedule: Q01DX005 (ip), vehicle: saline with Tween-80
[12] = dose: 100.0 mg/kg/injection, schedule: Q01DX005 (ip), vehicle: saline with Tween-80
[13] = dose: 200.0 mg/kg/injection, schedule: Q01DX005 (ip), vehicle: saline with Tween-80

With `COCC(O)COC` the T/C [1] was 94 % of control, the T/C [2] was 96 % of control and the T/C (dose: 200.0 mg/kg/injection, schedule: Q01DX009 (ip), vehicle: saline) was 87 % of control.
With `CCCc1nc2c(=O)[nH]cnc2o1` the T/C [3] was 100 % of control, the T/C [4] was 100 % of control and the T/C (dose: 200.0 mg/kg/injection, schedule: Q01DX001 (ip), vehicle: saline with Tween-80) was 100 % of control.
With `COc1cc(/C=N/NC(=O)CN(C)C)cc(OC)c1N(CCCl)CCCl` the T/C [5] was 116 % of control, the T/C [6] was 152 % of control and the T/C [7] was 186 % of control and 189 % of control. For the same compound, the T/C (dose: 100.0 mg/kg/injection, schedule: Q01DX009 (ip), vehicle: Klucel (hydroxypropylcellulose) (HPC)) was 93 % of control.
With `Cc1cn(C2CC3[O][Sn]([c]4ccccc4)([c]4ccccc4)[O]CC3O2)c(=O)[nH]c1=O` (stereo unspecified) the T/C [8] was 124 % of control and the T/C [9] was 100 % of control.
`COc1cc(C(C)(C)C)cc(OC)c1C(O)(c1c(OC)cc(C(C)(C)C)cc1OC)c1c(OC)cc(C(C)(C)C)cc1OC` was tested, and the T/C (dose: 25.0 mg/kg/injection, schedule: Q01DX009 (ip), vehicle: saline with Tween-80) was 121 % of control and the T/C [10] was 104 % of control.
For `Cc1cccc2c1nc(C)c1nc(-c3ccccc3)oc12`, the T/C (dose: 6.25 mg/kg/injection, schedule: Q01DX005 (ip), vehicle: saline with Tween-80) was 101 % of control, the T/C (dose: 12.5 mg/kg/injection, schedule: Q01DX005 (ip), vehicle: saline with Tween-80) was 91 % of control and the T/C (dose: 25.0 mg/kg/injection, schedule: Q01DX005 (ip), vehicle: saline with Tween-80) was 90 % of control. The T/C [11] was 89 % of control, the T/C [12] was 89 % of control and the T/C [13] was 94 % of control.
For `CC(C)c1cccc(O)c1O`, the T/C [2] was 97 % of control.
With `CN(C)c1ccc(/C=C2\SC(=S)N(CCCN3CCOCC3)C2=O)cc1` the T/C (dose: 50.0 mg/kg/injection, schedule: Q01DX009 (ip), vehicle: saline with Tween-80) was 91 % of control, the T/C [10] was 90 % of control and the T/C (dose: 200.0 mg/kg/injection, schedule: Q01DX009 (ip), vehicle: saline with Tween-80) was 87 % of control.
With `CC1(C)C=CC(=O)C=C1C#N` the T/C (dose: 100.0 mg/kg/injection, schedule: Q01DX001 (ip), vehicle: Klucel (hydroxypropylcellulose) (HPC)) was 92 % of control, the T/C (dose: 200.0 mg/kg/injection, schedule: Q01DX001 (ip), vehicle: Klucel (hydroxypropylcellulose) (HPC)) was 104 % of control and the T/C (dose: 400.0 mg/kg/injection, schedule: Q01DX001 (ip), vehicle: Klucel (hydroxypropylcellulose) (HPC)) was 106 % of control.
`NNC(=O)CN1c2ccccc2Sc2ccc(Cl)cc21` was tested, and the T/C [5] was 104 % of control, the T/C (dose: 12.5 mg/kg/injection, schedule: Q01DX009 (ip), vehicle: Klucel (hydroxypropylcellulose) (HPC)) was 95 % of control and the T/C [6] was 97 % of control. For the same compound, the T/C [7] was 99 % of control.
`Nc1ccc2nc3ccc(=O)cc-3n(-c3ccccc3)c2c1` was tested, and the T/C (dose: 0.5 mg/kg/injection, schedule: Q01DX009 (ip), vehicle: saline) was 115 % of control, the T/C (dose: 1.0 mg/kg/injection, schedule: Q01DX009 (ip), vehicle: saline) was 124 % of control and the T/C (dose: 1.25 mg/kg/injection, schedule: Q01DX009 (ip), vehicle: saline) was 102 % of control. The T/C (dose: 2.5 mg/kg/injection, schedule: Q01DX009 (ip), vehicle: saline) was 104 % of control, the T/C (dose: 5.0 mg/kg/injection, schedule: Q01DX009 (ip), vehicle: saline) was 105 % of control and the T/C (dose: 20.0 mg/kg/injection, schedule: Q01DX009 (ip), vehicle: saline) was 119 % of control. For the same compound, the T/C (dose: 40.0 mg/kg/injection, schedule: Q01DX009 (ip), vehicle: saline) was 114 % of control.
For `COc1cccc(/C=N/C(/N=C/c2cccc(OC)c2O)c2cccc(OC)c2O)c1O`, the T/C (dose: 60.0 mg/kg/injection, schedule: Q01DX005 (ip), vehicle: saline with Tween-80) was 97 % of control, the T/C (dose: 120.0 mg/kg/injection, schedule: Q01DX005 (ip), vehicle: saline with Tween-80) was 97 % of control and the T/C (dose: 240.0 mg/kg/injection, schedule: Q01DX005 (ip), vehicle: saline with Tween-80) was 102 % of control.
In the case of `OCC1OC(Nc2ccccc2/C=N\O)C(O)C1O` (stereo unspecified), the T/C [8] was 98 % of control, the T/C [9] was 107 % of control and 96 % of control and the T/C [1] was 99 % of control and 115 % of control. For the same compound, the T/C [2] was 98 % of control and 95 % of control.
With `CCCCS(=O)(=O)C(C)(Cl)C(=O)OCC` (stereo unspecified) the T/C (dose: 25.0 mg/kg/injection, schedule: Q01DX001 (ip), vehicle: saline with Tween-80) was 100 % of control, the T/C [3] was 100 % of control and the T/C [4] was 106 % of control and 93 % of control.
`C=C1CN(C(=O)c2ccccc2)C(=S)S1` was tested, and the T/C [11] was 108 % of control, the T/C [12] was 108 % of control and the T/C [13] was 103 % of control.

— PubChem BioAssay AID330 (DTP/NCI, 2004)
